Test system: 276233-004-R-J1-PDC complex spheroid viability
Assay: Anticancer human tumor 276233-004-R-J1-PDC patient-derived colon adenocarcinoma cell line growth inhibition [GQUAD]
Settings: for IC50: curve of first compound; for viability, T/C: stronger effect = lower value; active = viability on the fitted dose curve at most 10% of control; inactive = the rest
From the text: DNA G-quadruplex Stabilizer Agents in Combinations in Complex Spheroids
A high-throughput screen of multi-cell type tumor spheroids was designed to identify active combinations of DNA G-quadruplex stabilizer agents and targeted small molecules. Complex spheroids include a stromal component modeled by human endothelial cells (HUVEC) and fibroblasts modeled by human mesenchymal stem cells (MSCs). The concentration ranges selected for each drug and investigational agent were based upon clinically achievable concentrations if the clinical Cmax of the agent was known.
Compounds. The drugs and investigational agents: pidnarulex (CX-5461; NSC782164), APTO-253 (NSC789042), BRACO-19 (NSC847499), peposertib (NSC802822), ceralasertib (NSC780249), elimusertib (NSC800525), camonsertib (NSC841442), AZD-1390 (NSC803789), olaparib (NSC753686), talazoparib (NSC767125), ART-558 (NSC835418), sotorasib (NSC818433), MRTX-1133 (NSC836407), SN-38 (NSC673596), topotecan (NSC609699), etoposide (NSC141540), doxorubicin (NSC123127), gemcitabine (NSC613327), 5-fluorouracil (NSC19893), paclitaxel (NSC125973), vemurafenib (NSC761431), panobinostat (NSC761190), R-306465 (JNJ-16241199; NSC773264), adavosertib (NSC754352), TP-3654 (NSC805149), carboplatin (NSC241240), KSQ-4279 (NSC840948), and staurosporine (NSC755774) were obtained from the National Cancer Institute (NCI) Developmental Therapeutics Program Chemical Repository (34). The FDA-approved anticancer drug set is available from the NCI Developmental Therapeutics Program. […] The stock solutions were prepared in dimethyl sulfoxide (DMSO, Sigma-Aldrich, St. Louis, MO, cat. D2650) at 800-fold the tested concentration and stored at -70 degrees C prior to their use. All drugs and investigational agents were tested over a range starting from a high concentration at or near the clinical Cmax and decreasing in half-log increments. If the clinical Cmax for an agent had not been determined, the highest concentration tested was 10 microM.
2.3 Cell Culture. All cells were maintained in an incubator at 37 degrees C and 5% CO2 with 95% humidity. The PDC lines were cultured according to standard operating procedures established by the NCI PDMR. All PDCs were thawed and cultured in Matrigel-coated flasks prepared with a working solution of 1X Ham's F-12 nutrient mix, without supplementation (Invitrogen, cat. 11765054), 100 U/mL penicillin-streptomycin (Invitrogen, cat. 15140122), and 2.5% Matrigel (Corning Inc., cat. 354248) for the first three passages. The 857933-349-R-J2-PDC line was cultured in 6C/Colon 1B media, which includes advanced DMEM/F-12 (Thermo Fisher Scientific, cat. 12634028), 10 mM HEPES (Thermo Fisher Scientific, cat. 15630080), 1X GlutaMAX supplement (Thermo Fisher Scientific, cat. 35050061), 0.1 mg/mL primocin (InvivoGen, cat. ant-pm-2), 10% defined fetal bovine serum, heat inactivated (HyClone Laboratories Inc., cat. SH30070.03HI), 50% L-WRN conditioned media (ATCC, cat. CRL-3276), 1.25 mM N-Acetyl-L-cysteine (Sigma-Aldrich, cat. A9165), 10 mM nicotinamide (Sigma-Aldrich, cat. N0636), 1X B-27 supplement (Thermo Fisher Scientific, cat. 17504044), 1X N-2 supplement (Thermo Fisher Scientific, cat. 17502048), 10 microM Y-27632 dihydrochloride (Tocris Bioscience, cat. 1254), and 50 ng/mL human EGF recombinant protein (Thermo Fisher Scientific, cat. PHG0311). The 485176-168-R4-J1-PDC line was cultured in Panc media, which includes all 6C/Colon 1B media components plus 100 ng/mL human FGF-10 (Thermo Fisher Scientific, cat. 100-26), 500 nM SB-431542 (Selleckchem, cat. S1067), and gastrin (Tocris, cat. 3006).
[…]

[1] = second compound 0.0316 µM, first compound 0.0316 µM
[2] = second compound 0.0316 µM, first compound 0.316 µM
[3] = second compound 0.1 µM, first compound 0.0316 µM
[4] = second compound 0.1 µM, first compound 0.316 µM
[5] = second compound 0.316 µM, first compound 0.0316 µM
[6] = second compound 0.316 µM, first compound 0.316 µM
[7] = second compound 1 µM, first compound 0.0316 µM
[8] = second compound 1 µM, first compound 0.316 µM
[9] = second compound 3.16 µM, first compound 0.0316 µM
[10] = second compound 3.16 µM, first compound 0.316 µM
[11] = second compound 10 µM, first compound 0.0316 µM
[12] = second compound 10 µM, first compound 0.316 µM
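Also: spheroids exposed to drugs for seven days.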

CC(C)n1c(=O)n(C)c2cnc3cc(F)c(-c4ccc(OCCCN5CCCCC5)nc4)cc3c21 + CN(C)c1ccc(Nc2c3ccc(NC(=O)CCN4CCCC4)cc3nc3cc(NC(=O)CCN4CCCC4)ccc23)cc1
> 10000 nM: IC50 (second compound 0.0316 µM) | IC50 (second compound 0.1 µM) | IC50 (second compound 1 µM) | IC50 (second compound 3.16 µM)
< 31.6 nM: IC50 (second compound 10 µM)
8480 nM: IC50 (second compound 0.316 µM)
inactive: viability, T/C [1] 95.3% | viability, T/C (second compound 0.0316 µM, first compound 0.1 µM) 103% | viability, T/C [2] 99.6% | viability, T/C (second compound 0.0316 µM, first compound 1 µM) 92.9% | viability, T/C (second compound 0.0316 µM, first compound 3.16 µM) 69.2% | viability, T/C (second compound 0.0316 µM, first compound 10 µM) 53.1% | viability, T/C [3] 91.4% | viability, T/C (second compound 0.1 µM, first compound 0.1 µM) 99.2% | viability, T/C [4] 100% | viability, T/C (second compound 0.1 µM, first compound 1 µM) 89.2% | viability, T/C (second compound 0.1 µM, first compound 3.16 µM) 60.1% | viability, T/C (second compound 0.1 µM, first compound 10 µM) 55.5% | viability, T/C [5] 86.7% | viability, T/C (second compound 0.316 µM, first compound 0.1 µM) 84.3% | viability, T/C [6] 75.7% | viability, T/C (second compound 0.316 µM, first compound 1 µM) 86.1% | viability, T/C (second compound 0.316 µM, first compound 3.16 µM) 68.7% | viability, T/C (second compound 0.316 µM, first compound 10 µM) 46.9% | viability, T/C [7] 61.7% | viability, T/C (second compound 1 µM, first compound 0.1 µM) 57.4% | viability, T/C [8] 62.1% | viability, T/C (second compound 1 µM, first compound 1 µM) 72.7% | viability, T/C (second compound 1 µM, first compound 3.16 µM) 72.7% | viability, T/C (second compound 1 µM, first compound 10 µM) 64.8% | viability, T/C [9] 55.9% | viability, T/C (second compound 3.16 µM, first compound 0.1 µM) 53.6% | viability, T/C [10] 82.4% | viability, T/C (second compound 3.16 µM, first compound 1 µM) 90.1% | viability, T/C (second compound 3.16 µM, first compound 3.16 µM) 81.3% | viability, T/C (second compound 3.16 µM, first compound 10 µM) 36.6% | viability, T/C [11] 46.4% | viability, T/C (second compound 10 µM, first compound 0.1 µM) 54% | viability, T/C [12] 63.4% | viability, T/C (second compound 10 µM, first compound 1 µM) 83.1% | viability, T/C (second compound 10 µM, first compound 3.16 µM) 107% | viability, T/C (second compound 10 µM, first compound 10 µM) 26.4%

CC[C@@]1(O)C(=O)OCc2c1cc1n(c2=O)Cc2cc3c(CN(C)C)c(O)ccc3nc2-1 + CN(C)c1ccc(Nc2c3ccc(NC(=O)CCN4CCCC4)cc3nc3cc(NC(=O)CCN4CCCC4)ccc23)cc1
inactive: viability, T/C (second compound 0.0316 µM, first compound 0.000999 µM) 89.7% | viability, T/C (second compound 0.0316 µM, first compound 0.00316 µM) 110% | viability, T/C (second compound 0.0316 µM, first compound 0.00999 µM) 91.8% | viability, T/C [1] 103% | viability, T/C (second compound 0.0316 µM, first compound 0.0999 µM) 95.5% | viability, T/C [2] 91.2% | viability, T/C (second compound 0.1 µM, first compound 0.000999 µM) 84.2% | viability, T/C (second compound 0.1 µM, first compound 0.00316 µM) 87.7% | viability, T/C (second compound 0.1 µM, first compound 0.00999 µM) 84.9% | viability, T/C [3] 112% | viability, T/C (second compound 0.1 µM, first compound 0.0999 µM) 86.1% | viability, T/C [4] 85.4% | viability, T/C (second compound 0.316 µM, first compound 0.000999 µM) 68.2% | viability, T/C (second compound 0.316 µM, first compound 0.00316 µM) 84.2% | viability, T/C (second compound 0.316 µM, first compound 0.00999 µM) 66.5% | viability, T/C [5] 58.5% | viability, T/C (second compound 0.316 µM, first compound 0.0999 µM) 64.8% | viability, T/C [6] 82% | viability, T/C (second compound 1 µM, first compound 0.000999 µM) 62.6% | viability, T/C (second compound 1 µM, first compound 0.00316 µM) 56.4% | viability, T/C (second compound 1 µM, first compound 0.00999 µM) 66.7% | viability, T/C [7] 51.6% | viability, T/C (second compound 1 µM, first compound 0.0999 µM) 77.5% | viability, T/C [8] 57.5% | viability, T/C (second compound 3.16 µM, first compound 0.000999 µM) 64.1% | viability, T/C (second compound 3.16 µM, first compound 0.00316 µM) 61.3% | viability, T/C (second compound 3.16 µM, first compound 0.00999 µM) 56.2% | viability, T/C [9] 50% | viability, T/C (second compound 3.16 µM, first compound 0.0999 µM) 52.5% | viability, T/C [10] 46.8% | viability, T/C (second compound 10 µM, first compound 0.000999 µM) 58% | viability, T/C (second compound 10 µM, first compound 0.00316 µM) 58.5% | viability, T/C (second compound 10 µM, first compound 0.00999 µM) 46.7% | viability, T/C [11] 66.1% | viability, T/C (second compound 10 µM, first compound 0.0999 µM) 43.8% | viability, T/C [12] 39.8%
> 316 nM: IC50 (second compound 0.0316 µM) | IC50 (second compound 0.1 µM) | IC50 (second compound 0.316 µM) | IC50 (second compound 1 µM)
88.1 nM: IC50 (second compound 10 µM)
93 nM: IC50 (second compound 3.16 µM)
